Laboratory results: patent US6376666B1 (Nauchno-Issledovatelsky Institut Farmakologii Rossiiskoi …, priority 1994, dated 2002)
Marks after values point to notes of the source that are not given here.

Legend:
C57B1/6 mice = assay: open-field test, C57B1/6 mice (active type of emotional-stress reaction); type: in vivo; design: key to Total activity: sum of all locomotor activity counts (crossings + rearings) in 3 min; conditions: for Central activity (crossings) / Number of defecations / Peripheral activity (crossings) / Total activity / Vertical activity (rearings): M ± mx; for effect on locomotor activity of C57B1/6 mice in open-field test, in words: i.p., doses that activate Balb/c mice
Summary of the method: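 Male mice, 20-22 g, dosed i.p. in water 30 min before a 3-min open-field test after 1 min in darkness; peripheral, central, rearing and total activity plus defecations recorded; Student t-test. Anxiolysis read as Balb/c activation, sedation as C57B1/6 inhibition.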

aconitine arrhythmia = assay: animal or person; type: in vivo, rats; conditions: for ED50: Rattus norvegicus, iv, read-out: Aconitine arrhythmia ED50
Method: Aconitine arrhythmia. The aconitine arrhythmia was induced in concious rats weighing 180-200 g by the injection in tail vein of the aconitine sulfate solution at dose range of […]. […] The tested compounds were administered i.v. 3 min prior aconitine injection. The ED50 value was calculated according to Litchfield's method.

[1] = test system: ventricular fibrillations; assay: ventricular fibrillation, 7-min occlusion and reperfusion of coronary artery in anesthetized rats; type: in vivo; conditions: for Number of VF (ventricular fibrillations) / Number of LHA (lethality hazardous arrhythmia) / Total numbers of arrhyt. / Severity of arrhythmias: anesthetized rats; for Number of VF (ventricular fibrillations): control 15 of 24; for Number of LHA (lethality hazardous arrhythmia): control 22 of 24; for Total numbers of arrhyt.: control 24 of 24; for Severity of arrhythmias: control 66
Method: The experiments were conducted in male rats weighing 180-240 g and anesthetized with nembutal (60 mg/kg i.v.) with open chest and artificial respiration. The occlusion of the left coronary artery was performed 1-2 min after experiment beginning with following reperfusion after 7 min. During this period time according to literature data [Krzeminski T., Grzyb J., Kurcok A., Brus R.: Pol.J.Pharmacol., 1992, 44, Suppl., p.169-170] the maximum number of ventricular fibrillations (70-100%) were registered. The ECG in the 2nd standard lead was recorded in “Mingograph-81”. The number of ventricular fibrillations during occlusion and reperfusion periods, the life menacing arrhythmia (fibrillation+paroxysmal ventricular tachycardia) and total number of arrhythmias were calculated. The known antiarrhythmic drug bonnecor was used as the reference agent [Grigorieva E. K., Gorbunova V. V. in: “New antiarrhythmic drug—bonnecor (the pharmacology and clinical usage)”, M., 1993, p.64-67]. The compounds were injected i.v. at the following doses: bonnecor—1,0 mg/kg, compound IX—2,0 mg/kg, compound XX—1,0 mg/kg. The control animals were administered with the equivalent volume of physiological solution (1,0 ml/kg). 4 series of experiments were carried out in 80 rats. The results were assessed according to the method of point scale: the absence of arrhythmia—0 point, extrasystole—1 point, paroxysmal ventricular tachycardia—2 points, ventricular fibrillation—3 points, fibrillation observed during the occlusion of coronary vessel—4 points. For statistical analysis the Fisher's exact probability and Wilconson's methods were used.
[Krzeminski T., Grzyb J., Kurcok A., Brus R.: Pol.J.Pharmacol., 1992, 44, Suppl., p.169-170] have shown that 7 min occlusion with following reperfusion of coronary artery in anesthetized rats produced the ventricular fibrillation (68-100%). Defibrotide and prostacycline decreased the number of fibrillations. We have studied the antifibrillator activity of some derivatives of 2-mercaptbenzimidazole in this model with disturbances of heart rhythm. Bonnecor (1,0 mg/kg) was used as the reference drug. It is well known that this agent produces apronouncedantifibrillatoryactivity [Grigorieva E. K., Gorbunova V. V. in: “New antiarrhythmic drug-bonnecor (the pharmacology and clinical usage)”, M., 1993, p.64-67].

adrenaline arrhythmia = adrenaline arrhythmia in concious rabbits; conditions: given 2 min before arrhythmogenic dose of adrenaline
Method: Adrenaline arrhythmia. The 0,1% solution of adrenaline hydrochloride was injected to the marginal ear's vein of rabbit weighing 2,5-3,0 kg at dose ranging 120-150 mcg/kg which induced cardiac rhythm disturbances of two types.
The tested compound was injected in 3 ml of distilled water 30 min after determination of arrhythmogenic dose of adrenaline and the ECG was recorded in 2nd standard lead. 2 min after administration of tested compound the arrhythmogenic dose of adrenaline was injected.

[2] = test system: calcium chloride arrhythmia; assay: calcium chloride arrhythmia in concious rats; type: in vivo; conditions: for ED50: Rattus norvegicus, iv, read-out: Calcium chloride arrhythmia ED50 (mean effective dose); for effect on death from lethal ventricular fibrillation, in words: injected 2 min prior calcium chloride
Method: In these experiments the outbred concious rats 180-200 g of weight were injected with 10% solution of calcium chloride in tail vein at dose range of 250-300 mg/kg.

[3] = concious rats, given 2 min prior calcium chloride 250-300 mg/kg i.v.

CCOc1ccc2nc(SCCN3CCOCC3)[nH]c2c1 [XII, 2-[2-(Morpholino)ethylthio]-5-ethoxybenzimidazole]
Central activity (crossings) (C57B1/6 mice; 0.1 mg/kg i.p.): 18.3 ± 1.9
Number of defecations (C57B1/6 mice; 0.1 mg/kg i.p.): 1.3 ± 0.3
Peripheral activity (crossings) (C57B1/6 mice; 0.1 mg/kg i.p.): 92.9 ± 5.4
Total activity (C57B1/6 mice; 0.1 mg/kg i.p.): 123.6 ± 8.4
Vertical activity (rearings) (C57B1/6 mice; 0.1 mg/kg i.p.): 12.5 ± 1.1
Central activity (crossings) (C57B1/6 mice; 1.0 mg/kg i.p.): 20.4 ± 2.3
Number of defecations (C57B1/6 mice; 1.0 mg/kg i.p.): 0.5 ± 0.5
Peripheral activity (crossings) (C57B1/6 mice; 1.0 mg/kg i.p.): 86.6 ± 4.3
Total activity (C57B1/6 mice; 1.0 mg/kg i.p.): 123.5 ± 8.4
Vertical activity (rearings) (C57B1/6 mice; 1.0 mg/kg i.p.): 16.5 ± 1.8
Central activity (crossings) (C57B1/6 mice; 10.0 mg/kg i.p.): 36.0 ± 4.9
Number of defecations (C57B1/6 mice; 10.0 mg/kg i.p.): 0.6 ± 0.6
Peripheral activity (crossings) (C57B1/6 mice; 10.0 mg/kg i.p.): 86.6 ± 10.9
Total activity (C57B1/6 mice; 10.0 mg/kg i.p.): 140.2 ± 19.0
Vertical activity (rearings) (C57B1/6 mice; 10.0 mg/kg i.p.): 17.6 ± 3.2
Central activity (crossings) (C57B1/6 mice; 20.0 mg/kg i.p.): 23.4 ± 4.9
Number of defecations (C57B1/6 mice; 20.0 mg/kg i.p.): 1.8 ± 0.6
Peripheral activity (crossings) (C57B1/6 mice; 20.0 mg/kg i.p.): 86.4 ± 4.0
Total activity (C57B1/6 mice; 20.0 mg/kg i.p.): 127.2 ± 11.6
Vertical activity (rearings) (C57B1/6 mice; 20.0 mg/kg i.p.): 17.4 ± 2.7
Central activity (crossings) (C57B1/6 mice; 30.0 mg/kg i.p.): 26.3 ± 10.2
Number of defecations (C57B1/6 mice; 30.0 mg/kg i.p.): 0.1 ± 0.1
Peripheral activity (crossings) (C57B1/6 mice; 30.0 mg/kg i.p.): 53.0 ± 5.7
Total activity (C57B1/6 mice; 30.0 mg/kg i.p.): 87.9 ± 17.5
Vertical activity (rearings) (C57B1/6 mice; 30.0 mg/kg i.p.): 8.3 ± 4.6
Central activity (crossings) (C57B1/6 mice; 50.0 mg/kg i.p.): 13.9 ± 5.3
Number of defecations (C57B1/6 mice; 50.0 mg/kg i.p.): 0.5 ± 0.3
Peripheral activity (crossings) (C57B1/6 mice; 50.0 mg/kg i.p.): 67.1 ± 11.9
Total activity (C57B1/6 mice; 50.0 mg/kg i.p.): 90.1 ± 19.8
Vertical activity (rearings) (C57B1/6 mice; 50.0 mg/kg i.p.): 9.1 ± 2.6
effect on locomotor activity of C57B1/6 mice in open-field test, in words (C57B1/6 mice): without any changes in locomotor activity

CN(C)CCSc1nc2ccccc2n1CCc1ccccc1 [Compound XX, 1-(β-Phenylethyl)-2-[2-(dimethylamino)ethylthio]-benzimidazole]
ED50 (aconitine arrhythmia): < 0.5 mg/kg
Number of VF (ventricular fibrillations) ([1]; 1 mg/kg i.v., 18 animals): 7^
Number of LHA (lethality hazardous arrhythmia) ([1]; 1 mg/kg i.v., 18 animals): 11*
Total numbers of arrhyt. ([1]; 1 mg/kg i.v., 18 animals): 13**
Severity of arrhythmias ([1]; 1 mg/kg i.v., 18 animals): 34* points
Adrenaline arrhythmia. Range of active doses (adrenaline arrhythmia): 0.2−0.7 mg/kg
ED50 [2, 3]: 2.03 mg/kg
Calcium chloride arrhythmia ED50 (mean effective dose) [2, 3]: 2.0 mg/kg
effect on death from lethal ventricular fibrillation, in words ([2]; concious rats): prevents the death of animals

CCOc1ccc2nc(SCCN(CC)CC)[nH]c2c1 [Compound IX, 2-[2-(Diethylamino)ethylthio]-5-ethoxybenz-imidazole]
LD50/ED50 (antiarrhythmic index) (aconitine arrhythmia; LD50 i.v. / ED50 aconitine arrhythmia): 26,2
ED50 (aconitine arrhythmia): 1.2 mg/kg
activity relative to lidocaine, aconitine arrhythmia (aconitine arrhythmia; rats, higher than lidocaine): 6,5 folds
activity relative to quinidine, aconitine arrhythmia (aconitine arrhythmia; rats, higher than quinidine): 4,4 folds
antifibrillatory effect, in words ([1]; anesthetized rats i.v., bonnecor 1,0, IX 2,0, X (printed) 1,0 mg/kg): reduced the number of both the ventricular fibrillations and lethality hazardous arrhythmia
Number of VF (ventricular fibrillations) ([1]; 2 mg/kg i.v., 20 animals): 4*
Number of LHA (lethality hazardous arrhythmia) ([1]; 2 mg/kg i.v., 20 animals): 12*
Total numbers of arrhyt. ([1]; 2 mg/kg i.v., 20 animals): 17^
Severity of arrhythmias ([1]; 2 mg/kg i.v., 20 animals): 32** points
Adrenaline arrhythmia. Range of active doses (adrenaline arrhythmia): 0.3 to 0.7 mg/kg
effect on locomotor activity of C57B1/6 mice in open-field test, in words (C57B1/6 mice): without any changes in locomotor activity
ED50 [2, 3]: 1 mg/kg
effect on death from lethal ventricular fibrillation, in words ([2]; concious rats): prevents the death of animals
activity relative to lidocaine, calcium chloride arrhythmia ([2]; rats, higher than lidocaine): 7,5 folds
activity relative to novocainamide, calcium chloride arrhythmia ([2]; rats, higher than novocainamide): 50 folds
